This is an account of results in patent US20100324091A1, “Pyrazolone Derivative” (Kowa Company, Ltd., priority 2007, published 2010).

For one assay, the system named is C57BL/6 mice. Kind of assay: Bleomycin-induced lung fibrosis model. As to conditions: Mus musculus, po, 504 h, 0.3 mg/kg orally once a day, three weeks after intratracheal bleomycin 6 mg/kg, vs solvent-administered group, read-out: Inhibitory ratio against the increment in the lung hydroxyproline amount. The class given is in vivo. The text has this:
It is reported that administering bleomycin into the trachea induces fibrosis of the lung. According to the pathological observation, it is similar to clinical idiopathic pulmonary fibrosis in terms of the thickened fibrosis of the alveolar wall, an increase in inflammatory cells, an increment in the amount of hydroxyproline, etc., and is often used as a lung fibrosis experimental model (Biochem. Biophys. Res. Comm., 288, 747 (2001)). Bleomycin hydrochloride (Bleo: Nippon Kayaku Co., Ltd.) dissolved in physiological saline was injected with 500 μl of compressed air into the bronchi of C57BL/6 mice (6 week old, female) at 6 mg/kg and 25 μl/body. Three weeks after the intratracheal administration, the amount of hydroxyproline in the lung was measured. The materials to be tested, at 0.3 mg/kg per dose, were suspended in 0.5% sodium carboxymethyl cellulose, and administered orally once a day. The effect of the present invention is represented by a inhibitory ratio against the increment in the amount of lung hydroxyproline of the solvent-administered group, and is shown in Table 3 below.

In assay [1] the test system is PAI-1 production in human bronchial epithelial cells (BEAS-2B). Briefly: PAI-1 production inhibitory activity using bronchial epithelial cells. To be noted: BEAS-2B cells, TGF-β stimulation, 24 hrs, PAI-1 in supernatant by ELISA. Format: cell-based. Here is the method: The effect of a compound against PAI-1 production activity was investigated using bronchial epithelial cells which reflect the PAI-1 concentration in the lung tissue involved in fibrosis (lung).
The effect against the amount of PAI-1 production was investigated using human bronchial epithelial cells (BEAS-2B). 0.1 ml of the BEAS-2B cells prepared to 2×10^5 cells/ml were added to each of the 96 wells of a collagen I coated plate, and precultured for 24 hrs. Then 0.1 ml of a medium containing […] of TGF-β was added, and after 24 hrs of incubation, the PAI-1 amount in the supernatant of the medium was measured by an ELISA kit. The materials to be tested were, after dissolved in dimethyl sulfoxide (the final concentration: 0.1% or lower), prepared to 0.2, 1, 5, and 25 μM with a phosphate buffer solution, and added to the preculture.
(In general: In an ELISA, binding on a coated surface is turned into a signal by an enzyme label.)

The IC50 is the concentration at which inhibition is half-maximal. A high value points to weaker potency in that assay.

For the compound `COc1ccc(C2=NNC(=O)C2)cc1OCC1CC1` [Compound No. 9, 3-(3-(cyclopropylmethoxy)-4-methoxyphenyl)-5-pyrazolone], the inhibition in vivo at 0.3 mg/kg in the assay on C57BL/6 mice was found to be 60%.

With `COc1ccc(C2=NN(C)C(=O)C2)cc1OC1Cc2ccccc2C1` [Compound No. 2, 3-(3-(2-indanyloxy)-4-methoxyphenyl)-1-methyl-5-pyrazolone], the inhibition in vivo at 0.3 mg/kg in the assay with C57BL/6 mice amounted to 75%. This compound also gave an IC50 in assay [1] of 1420 nM.

Regarding `COc1ccc(C2=NNC(=O)C2)cc1OC1CCCC1` [Compound No. 3, 3-(3-(cyclopentyloxy)-4-methoxyphenyl)-5-pyrazolone], the inhibition in vivo at 0.3 mg/kg in the assay with C57BL/6 mice is 73%. In assay [1], this compound yielded an IC50 of 7590 nM.

Turning to `O=C1CC(c2ccc(OC(F)F)c(OC3CCCC3)c2)=NN1` [Compound No. 8, 3-(3-(cyclopentyloxy)-4-(difluoromethoxy)phenyl)-5-pyrazolone], the inhibition in vivo at 0.3 mg/kg with C57BL/6 mice worked out at 61%.

With `COc1ccc(C2=NN(c3ccc(C(=O)O)cc3)C(=O)C2)cc1OC1CCCC1` [Compound No. 7, 3-(3-(cyclopentyloxy)-4-methoxyphenyl)-1-(4-hydroxycarbonylphenyl)-5-pyrazolone], the inhibition in vivo at 0.3 mg/kg with C57BL/6 mice is 57%.

With `COc1ccc(C2=NNC(=O)C2)cc1OC1Cc2ccccc2C1` [Compound No. 1, 3-(3-(2-indanyloxy)-4-methoxyphenyl)-5-pyrazolone], the inhibition in vivo at 0.3 mg/kg in the assay on C57BL/6 mice is 77%.

Regarding `COc1ccc(C2=NN(c3ccccc3)C(=O)C2)cc1OC1Cc2ccccc2C1` [Compound No. 5, 3-(3-(2-indanyloxy)-4-methoxyphenyl)-1-phenyl-5-pyrazolone], the inhibition in vivo at 0.3 mg/kg with C57BL/6 mice was 75%.

As to `COc1ccc(C2=NN(c3ccccc3)C(=O)C2)cc1OC1CCCC1` [Compound No. 6, 3-(3-(cyclopentyloxy)-4-methoxyphenyl)-1-phenyl-5-pyrazolone], the inhibition in vivo at 0.3 mg/kg with C57BL/6 mice stood at 52%. This compound also gave an IC50 in assay [1] of 2560 nM.

As to `COc1ccc(C2=NN(C)C(=O)C2)cc1OC1CCCC1` [Compound No. 4, 3-(3-(cyclopentyloxy)-4-methoxyphenyl)-1-methyl-5-pyrazolone], the inhibition in vivo at 0.3 mg/kg in the assay on C57BL/6 mice came to 73%.
